Patent US11667678B2, “Peptides for the treatment of COVID-19” (priority 2019, dated 2023)

How the values were obtained:
Assay type in all cases: cell-based
[1] = system: human A549 lung cells challenged with Delta variant SARS-CoV-2 spike S1
[2] = system: human A549 lung cells challenged with UK variant (Alpha or N501Y) SARS-CoV-2 spike S1
[3] = system: human A549 lung cells challenged with South Africa variant (E484K) SARS-CoV-2 spike S1
[4] = system: human A549 lung cell line stimulated with Omicron variant SARS-CoV-2 spike S1

## CC(C)=CCO [prenol]
[1]
  IL-6 promoter-driven luciferase activity (reporter activity): significant inhibition
[2]
  IL-6 promoter-driven luciferase activity (reporter activity): significant inhibition
[3]
  IL-6 promoter-driven luciferase activity (reporter activity): significant inhibition
[4]
  Omicron variant spike S1-induced expression of TNFα and IL-1β (mRNA and promoter-luciferase activity): Significant inhibition

## O=C(O)c1ccc(O)cc1 [4HB, 4-hydroxybenzoate]
[1]
  IL-6 promoter-driven luciferase activity (reporter activity): significant inhibition
[2]
  IL-6 promoter-driven luciferase activity (reporter activity): significant inhibition
[3]
  IL-6 promoter-driven luciferase activity (reporter activity): significant inhibition
[4]
  Omicron variant spike S1-induced expression of TNFα and IL-1β (mRNA and promoter-luciferase activity): Significant inhibition

## EDLFYQ (SPIDAR peptide) [wtSPIDAR]
[1]
  IL-6 promoter-driven luciferase activity (reporter activity): significant inhibition
[2]
  IL-6 promoter-driven luciferase activity (reporter activity): significant inhibition
[3]
  IL-6 promoter-driven luciferase activity (reporter activity): significant inhibition
[4]
  Omicron variant spike S1-induced expression of TNFα and IL-1β (mRNA and promoter-luciferase activity): Significant inhibition
